What all share (assay): NBD fluorescence titration
Holding throughout (format): binding

The target in assay [1] is T1, Aster-A261–576 (ASTER domain of Aster-A) (Mus musculus, UniProt Q8VEF1).
T1 sequence (Q8VEF1 261-576): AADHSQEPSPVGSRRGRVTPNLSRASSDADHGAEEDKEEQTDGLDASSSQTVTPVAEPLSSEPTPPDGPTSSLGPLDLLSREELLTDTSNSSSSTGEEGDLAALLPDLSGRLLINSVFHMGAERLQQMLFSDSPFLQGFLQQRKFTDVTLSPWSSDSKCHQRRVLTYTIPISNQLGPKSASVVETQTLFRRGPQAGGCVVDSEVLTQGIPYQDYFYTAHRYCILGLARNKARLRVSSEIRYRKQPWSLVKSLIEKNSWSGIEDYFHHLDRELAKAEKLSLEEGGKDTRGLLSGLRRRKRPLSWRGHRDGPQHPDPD

Assay [2] has as its target T2, StARD1 (StAR; HMBP-3C-STAR.66–285) (Homo sapiens, UniProt P49675).
T2 sequence (P49675 66-285): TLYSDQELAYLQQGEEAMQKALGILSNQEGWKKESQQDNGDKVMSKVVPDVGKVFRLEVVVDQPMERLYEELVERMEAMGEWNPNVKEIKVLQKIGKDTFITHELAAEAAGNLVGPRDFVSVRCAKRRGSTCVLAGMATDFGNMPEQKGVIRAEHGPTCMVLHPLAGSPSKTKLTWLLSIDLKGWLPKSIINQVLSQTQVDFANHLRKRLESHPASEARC
The following applies: labelled compound.

Assay [3] has as its target Aster-C206–528 (ASTER domain of Aster-C) (Mus musculus, UniProt Q8CI52).

The Kd is a measure of binding affinity in units of concentration. A low value points to higher affinity.

Aster-C206–528 (ASTER domain of Aster-C), sequence (Q8CI52 206-528): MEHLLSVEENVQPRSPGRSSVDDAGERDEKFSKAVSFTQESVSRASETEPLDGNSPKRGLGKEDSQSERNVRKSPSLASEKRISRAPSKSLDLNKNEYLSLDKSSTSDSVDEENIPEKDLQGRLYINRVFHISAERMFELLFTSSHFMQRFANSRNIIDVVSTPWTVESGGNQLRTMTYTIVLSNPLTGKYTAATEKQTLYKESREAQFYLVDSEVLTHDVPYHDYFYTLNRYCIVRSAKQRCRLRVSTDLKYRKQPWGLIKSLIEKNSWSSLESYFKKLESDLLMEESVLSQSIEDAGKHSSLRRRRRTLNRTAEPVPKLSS

Take `C[C@H](CNc1ccc([N+](=O)[O-])c2nonc12)[C@H]1CC[C@H]2[C@@H]3CC=C4C[C@@H](O)CC[C@]4(C)[C@H]3CC[C@]12C` [22-NBD-cholesterol]: the Kd in assay [1] was less than 100 nM; in assay [2], “Comparison of NBD-cholesterol binding to Aster-A, Aster-B and StarD1”; in assay [3], less than 100 nM.

These data come from article PMC6469685 (Cell, 2018).
